Consider one compound from publication PMC10590756, “Glutarate regulates T cell metabolism and anti-tumour immunity” (Nature Metabolism, 2023).

One assay concerns the target T1, PDHE2 K259 in HeLa cells (Homo sapiens, UniProt P10515).
T1 construct: Proteomic analysis of PDHE2 immunoprecipitated from HeLa cells; endogenous in cells; host or cells: HeLa cells
Put plainly: Proteomic analysis of PTMs on immunoprecipitated PDHE2. It counts as cell-based. The settings on record: 500 µM DEG, 24 h. As for the experimental part: HeLa cells were lysed on ice for 30 min in a HEPES buffer (150 mM NaCl, 50 mM HEPES, pH 7.0, 1% IGEPAL CA-630, 1 mM nicotinamide (Sigma-Aldrich), 5 mM Tris(2-carboxyethyl)phosphine hydrochloride (Sigma-Aldrich), 1× Complete Protease Inhibitor Cocktail (Roche) and 1 mM phenylmethylsulfonyl fluoride). Lysates were centrifuged at 14,000g for 10 min at 4 °C. Free thiols were blocked by adding 10 mM N-ethylmaleimide (NEM) (Sigma-Aldrich) and incubated on a rotator at 4 °C for 1 h. Lysates were immunoprecipitated by incubation with protein G Dynabeads (catalogue no. 10003D, Invitrogen), first for 1 h to pre-clear, and then overnight with the DLAT antibody (12362S (4A4-B6-C10), Cell Signaling Technology). […]
Raw files were processed using PEAKS Studio (v.8.0, Bioinformatics Solutions) with the following parameters: enzyme: AspN, human database (UniProt reference proteome downloaded 21 January 2021 containing 20,541 proteins) with additional contaminant database (containing 246 common contaminants); variable modifications at PEAKS database stage: oxidation, carbamidomethylation, lipoylation, 1× and 2× NEM, glutaryl lipoate, NEM glutaryl lipoate and 309 built-in modifications at PEAKS PTM stage. The area under the curve (AUC) values for each peptide were extracted from the PEAKS peptide list, with AUCs calculated by PEAKS.

The subject of assay [1] is B16F10-OVA melanoma tumours. Kind of assay: B16F10-OVA tumour growth and infiltration model. Format: in vivo, C57BL/6J mice. The method, then:
Seven to 10-week-old male C57BL/6J mice were inoculated subcutaneously with 1.0 × 10^6 B16F10-OVA. Animals were assigned randomly to each experimental group. Four days after inoculation, mice were treated with a peritoneal injection of 0.2 mg DEG (approximately 10 mg kg^−1). Treatment was repeated every 2–3 days until day 28. Tumour volume was measured every 2–3 days with electronic callipers until day 30. Peripheral blood was collected from the tail vein at day 7 and 14 days after tumour inoculation and analysed using flow cytometry. On day 14, tumours were dissected and dissociated using the Tumor Dissociation Kit (catalogue no. 130-095-929, Miltenyi Biotec), according to the manufacturer’s instructions. Spleen and the tumour-draining lymph node were mashed in cell strainers. The tumour, spleen and draining lymph node single-cell suspensions were stained with fluorochrome-labelled antibodies and analysed using flow cytometry. The tumour experiments using C57BL/6J mice were carried out in accordance with the ethical regulations of the UK Home Office and the maximal tumour burden of […] was not exceeded (mice were euthanized when tumour volume exceeded […]).

Setting [2] is: 14 days after tumour inoculation, relative to controls.

T1 sequence (P10515 87-647): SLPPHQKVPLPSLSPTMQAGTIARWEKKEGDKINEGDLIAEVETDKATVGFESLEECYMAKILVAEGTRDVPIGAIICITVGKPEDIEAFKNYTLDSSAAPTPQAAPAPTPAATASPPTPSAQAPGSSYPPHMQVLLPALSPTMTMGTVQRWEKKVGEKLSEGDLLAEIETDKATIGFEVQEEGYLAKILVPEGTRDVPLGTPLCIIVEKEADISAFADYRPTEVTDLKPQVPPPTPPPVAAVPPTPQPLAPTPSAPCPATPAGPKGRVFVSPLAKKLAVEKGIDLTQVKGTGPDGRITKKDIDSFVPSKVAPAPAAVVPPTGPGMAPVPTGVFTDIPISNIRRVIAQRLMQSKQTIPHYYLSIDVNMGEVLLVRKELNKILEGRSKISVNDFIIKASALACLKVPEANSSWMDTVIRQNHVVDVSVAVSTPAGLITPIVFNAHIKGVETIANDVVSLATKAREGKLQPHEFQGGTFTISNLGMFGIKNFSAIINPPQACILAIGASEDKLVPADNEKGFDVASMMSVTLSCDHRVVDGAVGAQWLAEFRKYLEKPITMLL

`CCOC(=O)CCCC(=O)OCC` [DEG, Diethyl glutarate]: at PDHE2 K259 in HeLa cells, the “levels of glutaryl-lipoyl K259 of PDHE2” value is listed as “increasing” and the “levels of lipoyl K259 of PDHE2” value is “reduced”. Moreover, in assay [1] (10 mg kg^−1 DEG intraperitoneally every 48–72 h, 1,000 mm^3 tumour volume as threshold), the survival entry is “significantly increased survival”. The tumour growth entry in assay [1] (10 mg kg^−1 DEG intraperitoneally every 48–72 h from day 4) is listed as “significantly slowed tumour growth”. Also, in assay [1] (setting [2]), the “peripheral blood CD8^+ T cells” value is reported as “significant increase” and the “tumour-infiltrating CD8^+ T cells” value is “significant increase”. Also, in assay [1] (blood, tumour, spleen, tumour-draining lymph node, day 14), the other immune populations entry is listed as “No changes”. In addition, in assay [1] (day 14), the “circulating B cells” value is “slight decrease”; the “exhaustion-associated markers (TIM3, PD1, LAG3, TOX) in tumour-infiltrating CD4^+ or CD8^+ cells” value is recorded as “no changes”; the “memory-associated markers (CD62L and CD44) in tumour-infiltrating CD4^+ or CD8^+ cells” value is “no changes”.
